Publication PMC7111280 (European Journal of Medicinal Chemistry, 2018)

How the values were obtained:
Hel cells = conditions: Table 5, HSV/vaccinia assays, Hel cell morphology
HSV-1 (TK−) KOS ACVr = test: microbe, parasite or virus in culture; type: cell-based, herpes simplex virus type 1; conditions: Human alphaherpesvirus 1, HEL, read-out: HSV-1 (TK−) KOS ACVr EC50
vaccinia virus = test: microbe, parasite or virus in culture; type: cell-based; conditions: Orthopoxvirus vaccinia, HEL, read-out: vaccinia virus EC50
HeLa = conditions: read-out: HeLa IC50; proliferation, Coulter Counter cell count; cited from earlier work
CEM = conditions: read-out: CEM IC50; proliferation, Coulter Counter cell count; cited from earlier work
L1210 = conditions: read-out: L1210 IC50; proliferation, Coulter Counter cell count; cited from earlier work
HMVEC = test: Endothelial cell proliferation, Coulter counter; type: cell-based; conditions: Homo sapiens, 96 h, read-out: HMVEC IC50
MDA-MB-231-LM2 cells = test: Metastatic breast cancer xenograft mouse model; type: in vivo, SCID mice
CMV (AD-169) = test: Antiviral cytopathicity assay in Hel cells; type: cell-based, human cytomegalovirus

For `Nc1nc2c(ncn2COCCO)c(=O)[nH]1` [Acyclovir, reference compound], the “MCC (minimal cytotoxic concentration)” value (Hel cells) was over 250 µM.
In the case of `Nc1ccn(C[C@@H](CO)OCP(=O)(O)O)c(=O)n1.O.O` [Cidofovir], the EC50 (HSV-1 (TK−) KOS ACVr) is reported as 2000 nM, the EC50 (vaccinia virus) is reported as 22000 nM and the “MCC (minimal cytotoxic concentration)” value (Hel cells) is reported as over 250 µM.
In the case of `C#C[C@@]1(O)[C@@H](CO)O[C@@H](n2cnc3c(N)ncnc32)[C@@H]1O` [Compound 5, 3′-C-ethynyladenosine], the EC50 (vaccinia virus) is given as 350 ± 50 nM, the IC50 (HeLa) is given as 290 ± 110 nM and the IC50 (CEM) is given as 610 ± 80 nM. The IC50 (L1210) was 730 ± 140 nM.
`C#C[C@@]1(O)[C@@H](CO)O[C@@H](n2cc(F)c3c(N)ncnc32)[C@@H]1O` [Compound 31, 4-amino-5-fluoro-N7-(3′-C-ethynyl-β-D-ribofuranosyl)-pyrrolo[2,3-d]pyrimidine] showed an IC50 (HMVEC) of under 1.28 nM.
For `C#C[C@@]1(O)[C@@H](CO)O[C@@H](n2cc(Cl)c3c(N)ncnc32)[C@@H]1O` [Compound 32, 4-amino-5-chloro-N7-(3′-C-ethynyl-β-D-ribofuranosyl)-pyrrolo[2,3-d]pyrimidine], the “tumor growth (BLI radiance, caliper)” value (MDA-MB-231-LM2 cells; 0.3 mg/kg i.t., starting from day 18, after four i.t. injections) was “significantly retarded”, the “total metastasis burden in the lungs (BLI)” value (MDA-MB-231-LM2 cells; day 34 versus vehicle control group) was “significantly lower” and the IC50 (HMVEC) was under 1.28 nM.
`C#C[C@@]1(O)[C@@H](CO)O[C@@H](n2cc(I)c3c(N)ncnc32)[C@@H]1O` [Compound 34, 4-amino-5-iodo-N7-(3′-C-ethynyl-β-D-ribofuranosyl)-pyrrolo[2,3-d]pyrimidine] gave an IC50 (HMVEC) of under 1.28 nM.
With `C#C[C@@]1(O)[C@@H](CO)O[C@@H](n2cc(Cl)c3c(Cl)ccnc32)[C@@H]1O` [Compound 66, 3,4-dichloro-N1-(3′-C-ethynyl-β-D-ribofuranosyl)-pyrrolo[2,3-b]pyridine] the selectivity index (CMV (AD-169); human cytomegalovirus (hCMV)) was 10 fold and the “MCC (minimal cytotoxic concentration)” value (Hel cells) was at least 100 µM.
In the case of `C#C[C@@]1(O)[C@@H](CO)O[C@@H](n2cc(Br)c3c(Cl)ccnc32)[C@@H]1O` [Compound 67, 3-bromo-4-chloro-N1-(3′-C-ethynyl-β-D-ribofuranosyl)-pyrrolo[2,3-b]pyridine], the “MCC (minimal cytotoxic concentration)” value (Hel cells) is reported as over 100 µM.
With `C#C[C@@]1(O)[C@@H](CO)O[C@@H](n2cc(I)c3c(Cl)ccnc32)[C@@H]1O` [Compound 68, 3-iodo-4-chloro-N1-(3′-C-ethynyl-β-D-ribofuranosyl)-pyrrolo[2,3-b]pyridine] the “MCC (minimal cytotoxic concentration)” value (Hel cells) was over 100 µM.
With `C#C[C@@]1(O)[C@@H](CO)O[C@@H](n2ccc3c(Cl)ccnc32)[C@@H]1O` [Compound 70, 4-chloro-N1-(3′-C-ethynyl-β-D-ribofuranosyl)-pyrrolo[2,3-b]pyridine] the “activity against hCMV” value (CMV (AD-169)) was “inactive” and the “MCC (minimal cytotoxic concentration)” value (Hel cells) was over 100 µM.
In the case of `Nc1nc(O)c2ncn(COC(CO)CO)c2n1` [Ganciclovir, reference compound], the “MCC (minimal cytotoxic concentration)” value (Hel cells) is reported as over 100 µM.
